Laboratory results from patent publication US20070173529A1, “Sulfated bis-cyclic agents” (priority 2003, published 2007).

How the values were obtained:
[1] = system: T1, human plasma factor Xa (Homo sapiens); experiment: Antithrombin-dependent factor Xa inhibition (residual factor Xa activity, Spectrozyme fXa substrate); type: biochemical; settings: 10 μM sulfated compound; 1 μM human plasma antithrombin, 10 nM human plasma factor Xa, pH 6.0, 25° C., 10 min
T1 construct: 10 nM human plasma factor Xa; from tissue; host or cells: human plasma
Protocol: (§1) Methods. To assay anticoagulant activity, compounds were incubated with 1 μM human plasma antithrombin and 10 nM human plasma factor Xa in 20 mM sodium phosphate buffer, pH 6.0, at 25° C. for 10 min. After incubation, residual factor Xa activity was measured spectrophotometrically using Spectrozyme fXa substrate. From the decrease in residual factor Xa activity as a function of sulfated bis-cyclic agent concentration, the anticoagulant potential of each sample was calculated.
(§2) A key test of in vitro anticoagulant activity is the inhibition of Factor Xa., a critical enzyme involved in blood clotting.
(§3) Each peak was isolated and its factor Xa inhibition potential was determined at concentrations in the range of 1-50 μM.

human plasma factor Xa = biological target: T2, human plasma factor Xa (Homo sapiens, UniProt P01008); experiment: as above; type: biochemical; settings: tested at 1-50 μM
T2 construct: 10 nM human plasma factor Xa; from tissue; host or cells: human plasma
Protocol: as §1, §2, §3

T1 sequence (P01008 33-464): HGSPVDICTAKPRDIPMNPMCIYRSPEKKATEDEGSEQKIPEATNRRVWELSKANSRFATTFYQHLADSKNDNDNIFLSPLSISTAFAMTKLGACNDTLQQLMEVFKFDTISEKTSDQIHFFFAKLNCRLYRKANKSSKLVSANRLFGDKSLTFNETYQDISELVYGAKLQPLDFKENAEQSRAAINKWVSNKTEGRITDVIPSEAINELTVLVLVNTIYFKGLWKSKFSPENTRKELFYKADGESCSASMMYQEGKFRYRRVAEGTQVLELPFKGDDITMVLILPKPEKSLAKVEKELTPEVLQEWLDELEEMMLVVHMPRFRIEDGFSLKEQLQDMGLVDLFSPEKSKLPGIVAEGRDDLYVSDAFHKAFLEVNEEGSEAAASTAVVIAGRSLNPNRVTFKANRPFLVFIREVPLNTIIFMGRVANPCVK
T2 sequence (P01008 33-464): as above

Inhibition (Factor Xa inhibition by sulfated compounds) [1]: 86%
acceleration of the inhibition of human factor Xa by human plasma antithrombin (human plasma factor Xa): greatly accelerates the inhibition
Substance: (3S)-6,7-bis-sulfonato-2-(3,4,5-tris-sulfonato-benzoyl)-1,2,3,4-tetrahydro-isoquinoline-3-carboxylate [Peak P1]
